Values joined by “and” are separate entries in the source; they are usually repeats but may differ in a detail not shown here. Equal entries are not always repeated.
What was measured:
Male Wistar rats = test: PAG measurement by 1H NMR in urine after single oral dose, ratio versus time-matched controls; assay type: in vivo, rat; details: for PAG: urine, individual animals
Experimental: (§1) All animals received (human) care as specified by Swiss law and in accordance with the “Guide for the care and use of laboratory animals” published by the NIH. Male Wistar rats (5 animals/dose-group) were purchased from RCC (Füllingsdorf, Switzerland) and housed individually. Treated animals were dosed orally by gavage with several doses of test compounds (Table 1). Control animals received the same volume of vehicle as placebo. Necropsy was performed 48 (subgroup A) or 168 hours (subgroup B) after a single administration (=Day 1) and urine samples were collected in metabolism cages at 0 to 4° C. (automatically refrigerated by a Tecniplast sampling/cooling unit (RACK B940, Tecniplast, USA)) at the intervals given in the sampling schedule in Table 2 into labelled sample tubes containing 1 ml of an aqueous Na-azide (1%) solution. Before aliquoting, urine volumes were determined.
Urine samples were taken on day -7,-2,-1, 1, 2, 3, 4, 5, 6 and 7, whereby Day 1 was the Day of dosing.
Immediately after reaching the end of the sampling period, the volume was determined and the samples were centrifuged at 3000 u/min (500 g) for 10 minutes.
Aliquot: Approximately 2 ml was transferred in 1.8 ml cryvials, round bottom, freestanding, with screw caps and septum for NMR-spectroscopic examinations (Bruker Analytik GmbH, Rheinstetten, Germany, Bruker part No. 85372). The vials were stored at −80° C.
Urine samples were prepared and measured on a Bruker 500 MHz NMR instrument according to the COMET 1H-NMR protocol (Keun, H. C et al., (2002) Physiological variation and analytical reproducibility in metabonomic urinalysis. Chem. Res. Tox. 15, 1380-1386) and as described above. In total 467 urine samples were analyzed. After measurement, all data were processed by XWINMR 3.5.6 (Bruker Biospin AG, Fällanden). Representative spectra are depicted in FIG. 2. Phase correction and baseline correction were performed with NMRPROC 0.3 (T. Ebbels, H. Keun; Imperial College). Spectral data were binned using AMIX 2.6 (Bruker Biospin AG, Fällanden) following the COMET Data Processing & Pattern Recognition protocol (Keun, H. C., et al., (2002) Physiological variation and analytical reproducibility in metabonomic urinalysis. Chem. Res. Tox. 15, 1380-1386). QC check procedures (Dieterle F., Ross A., Schlotterbeck G., Senn H. (2006) Probabilistic Quotient Normalization as Robust Method to Account for Dilution of Complex Biological Mixtures. Application in 1H NMR Metabonomics. Anal. Chem. 78, 4281-4290) were applied on binned data to detect outliers. In total 7 outliers were detected and removed from further analysis. All data were mean-centered and normalized using the probabilistic quotient normalization (Dieterle F., Ross A., Schlotterbeck G., Senn H. (2006) Probabilistic Quotient Normalization as Robust Method to Account for Dilution of Complex Biological Mixtures. Application in 1H NMR Metabonomics. Anal. Chem. 78, 4281-4290.). All binned data were annotated and transferred to the ANT (ANT: Affymetrix NMR Toxicology Data System) database.
The exact PAG quantification was performed according to following procedure: • Baseline subtraction of spectra • Integration of PAG peaks ((=7.47 ppm, (=7.39 ppm, (=3.79 ppm, and (=3.7 ppm respectively) and Citrate region ((=2.66-2.74 ppm and 2.50-2.58 ppm). • Quotient normalization (Dieterle F., Ross A., Schlotterbeck G., Senn H. (2006) Probabilistic Quotient Normalization as Robust Method to Account for Dilution of Complex Biological Mixtures. Application in 1H NMR Metabonomics. Anal. Chem. 78, 4281-4290.) • Divide each of the PAG bins by its average (all spectra) to correct for different relaxation times and number of protons • Calculate median out of the PAG bins • Calculate ratio versus time-matched controls

basic pKa value = assay type: physicochemical
lymphocytes = test: Electron microscopic examination of buffy coat lymphocytes for lamellar bodies (determination of phospholipidosis); assay type: in vivo, rat; details: for Result, PL (grade of severity of phospholipidosis) / lymphocytes %, pos. / lymphocytes positive (with lamellar bodies): individual rats
Experimental: as §1
Blood samples (as much as possible) were withdrawn from all animals at necropsy at about 48 hours after dosing (subgroup A) and about 168 hours after dosing (subgroup B)
The samples were collected from the abdominal aorta or by cardiac puncture under terminal anaesthesia (CO2). A total of at least 2 ml blood was required to gain buffy coat (buffy coat=leukocyte band) samples.
After fixation in 2.5% glutaraldehyde, the buffy coat samples from all animals were embedded in Epon. […] All thin sections were examined ultrastructurally. If possible, 200 lymphocytes per sample were examined for lamellar bodies. The results per sample include the total number of lymphocytes examined, the total number of positive lymphocytes (i.e. with lamellar bodies), the percentage of positive lymphocytes and a grading of severity of phospholipidosis (criteria see table 4)

[1] = potential to induce phospholipidosis judged from amphiphilicity and basic pKa; details: from reduced amphiphilicity and basic pKa
Source text: The structural difference between both molecules can be mainly characterized by the exchange of the piperazine against a morpholine moiety in compound 2.

[2] = rat, low-dosed animals (300 mg/kg)
[3] = 300 mg/kg/day, necropsy 168 hours after application
[4] = 300 mg/kg/day, necropsy 48 hours after application, 300 mg/kg/day
[5] = 300 mg/kg/day, necropsy 168 hours after application, 300 mg/kg/day
[6] = 1500 mg/kg/day, necropsy 48 hours after application, 1500 mg/kg/day
[7] = 1500 mg/kg/day, necropsy 168 hours after application, 1500 mg/kg/day

Cc1ccccc1-c1cc(N2CCN(C)CC2)ncc1N(C)C(=O)C(C)(C)c1cc(C(F)(F)F)cc(C(F)(F)F)c1 [Compound 1, 2-(3,5-Bis-trifluoromethyl-phenyl)-N-methyl-N-[6-(4-methyl-piperazin-1-yl)-4-o-tolyl-pyridin-3-yl]-isobutyramide]
PAG (Male Wistar rats; High_Dose group, Time 0 (within 8 hours before treatment)): 0.3099 and 0.4951 and 0.2661 and 0.1961 and 0.1580 and 0.3419 and 0.1895 and 0.2711 and 0.3305 and 0.4159 | PAG (Male Wistar rats; High_Dose group, Time 8 (within 8 hours after treatment)): 0.8523 and 0.4093 and 0.7986 and 0.5172 and 0.2995 and 0.4361 and 0.5473 and 0.4307 and 1.0174 and 0.3275 | PAG (Male Wistar rats; High_Dose group, Time 24 (within 8 to 24 hours after treatment)): 1.7579 and 1.3035 and 1.4190 and 0.4001 and 0.8788 and 1.2898 and 1.4210 and 1.9488 and 1.6305 and 1.2496 | PAG (Male Wistar rats; High_Dose group, Time −16 (1 day before treatment)): 0.7486 and 0.5615 and 0.6169 and 0.5637 and 0.4281 and 0.4828 and 0.2993 and 0.4535 and 0.5361 and 0.5442 | PAG (Male Wistar rats; High_Dose group, Time −144 (7 days before treatment)): 0.7666 and 0.8823 and 1.0974 and 0.6021 and 1.2709 and 1.0355 | PAG (Male Wistar rats; Low_Dose group, Time 0 (within 8 hours before treatment)): 0.3142 and 0.2440 and 0.3422 and 0.2530 and 0.3700 and 0.6319 and 0.3708 and 0.3307 and 0.2336 | PAG (Male Wistar rats; Low_Dose group, Time 8 (within 8 hours after treatment)): 1.1423 and 0.5270 and 0.3918 and 0.5331 and 0.6815 and 0.2977 and 0.6756 and 0.7527 and 0.4111 and 0.3688 | PAG (Male Wistar rats; Low_Dose group, Time 24 (within 8 to 24 hours after treatment)): 0.6300 and 0.8072 and 1.0165 and 0.7250 and 0.5035 and 0.6637 | PAG (Male Wistar rats; Low_Dose group, Time 48 (2 days after treatment)): 0.7584 and 0.6368 and 0.9878 and 0.6461 and 1.0386 and 0.3452 and 0.5698 and 0.3492 and 0.6477 | PAG (Male Wistar rats; Low_Dose group, Time −16 (1 day before treatment)): 0.2393 and 0.4349 and 0.5528 and 0.5649 and 0.8171 and 0.3201 and 0.5236 and 0.6045 and 0.4646 and 0.2537 | PAG (Male Wistar rats; Low_Dose group, Time −144 (7 days before treatment)): 0.8210 and 1.1559 and 0.9260 and 0.7456 and 0.8081 and 0.6038 and 1.5903 and 1.1241 and 0.9275 and 0.8848 | increase of mean PAG levels compared to time matched controls (Male Wistar rats; rat, high-dosed animals (1500 mg/kg)): 4 fold | mean PAG levels remaining elevated until the end of the study (Male Wistar rats; rat, high-dosed animals (1500 mg/kg), until 168 h): 3-4 fold | increase of mean PAG levels compared to time matched controls (factor) (Male Wistar rats; [2]): two | mean levels of PAG at time points later than 72 h (Male Wistar rats; [2]): fall below control samples | start of PAG elevation after dosing (Male Wistar rats; rat, single oral dose, both dose groups): 24 h | dose dependant change of PAG levels in urine (Male Wistar rats; rat, single oral dose, both dose groups, normalized to time matched controls): significant dose dependant elevation | pKa (basic pKa value): 7.67 | recovery of phospholipidosis 168 hours after application (lymphocytes; 300 mg/kg/day): partial or complete recovery | phospholipidosis severity (group assessment) (lymphocytes; 300 mg/kg/day, necropsied 48 hours after application): minimal to slight | incidence of affected lymphocytes (range over animals) (lymphocytes; 300 mg/kg/day, necropsied 48 hours after application, data from 3 animals): 5-12% | incidence of affected lymphocytes (range over animals) (lymphocytes; [3]): 0-1% | phospholipidosis severity (group assessment) (lymphocytes; [3]): minimal or not present | recovery of phospholipidosis within 168 hours after application (lymphocytes; 1500 mg/kg/day): no indications of recovery | lymphocytes affected (range) (lymphocytes; 1500 mg/kg/day, both time points (48 and 168 hours)): 15-31% | phospholipidosis severity (group assessment) (lymphocytes; 1500 mg/kg/day, necropsied 48 hours after application): moderate to marked | incidence of affected lymphocytes (range over animals) (lymphocytes; 1500 mg/kg/day, necropsied 48 hours after application, data from 4 animals): 15-31% | phospholipidosis severity (group assessment) (lymphocytes; 1500 mg/kg/day, sacrificed 168 hours after application): moderate to marked | incidence of affected lymphocytes (range over animals) (lymphocytes; 1500 mg/kg/day, sacrificed 168 hours after application, data from 4 animals): 21-31% | Result, PL (grade of severity of phospholipidosis) (lymphocytes; [4]): 1 (≦5%: minimal) and 2 (>5-15%: slight) (2×) | lymphocytes %, pos. (lymphocytes; [4]): 5% and 5.7% and 12.2% | lymphocytes positive (with lamellar bodies) (lymphocytes; [4]): 10 and 8 and 23 | Result, PL (grade of severity of phospholipidosis) (lymphocytes; [5]): 1 (≦5%: minimal) | lymphocytes %, pos. (lymphocytes; [5]): 0% (2×) and 1.1% and 1% and 0.8% | lymphocytes positive (with lamellar bodies) (lymphocytes; [5]): 0 (2×) and 2 (2×) and 1 | Result, PL (grade of severity of phospholipidosis) (lymphocytes; [6]): 3 (>15-25%: moderate) (2×) and 4 (>25: marked) (2×) and (2) (>5-15%: slight) | lymphocytes %, pos. (lymphocytes; [6]): 18.8% and 15.1% and 31% and (5.8) % and 25.7% | lymphocytes positive (with lamellar bodies) (lymphocytes; [6]): 36 and 19 and 61 and (3) and 29 | Result, PL (grade of severity of phospholipidosis) (lymphocytes; [7]): 4 (>25: marked) (2×) and 3 (>15-25%: moderate) (2×) | lymphocytes %, pos. (lymphocytes; [7]): 31% and 21% and 28.2% and 24% | lymphocytes positive (with lamellar bodies) (lymphocytes; [7]): 62 and 42 and 29 and 25 | lymphocytes containing cytoplasmic lamellar bodies (finding in words) (lymphocytes; rats, single oral dose, necropsy 48 or 168 hours after application): seen and occurred dose dependently | potential to induce phospholipidosis [1]: high potential
